Data from patent publication US20250206761A1, “HALOINDOLE MACROCYCLIC COMPOUNDS FOR THE TREATMENT OF CANCER” (Hoffmann-La Roche Inc., priority 2022, published 2025).

Assays:
[1] = target: KRAS G12D binding to BRAF (Homo sapiens (Human), UniProt P01116+P62937, G12D); assay: KRAS-BRAF with CYPA (500 nM) interaction assay (TR-FRET), G12D; assay type: biochemical
Experimental: (§1) In this example, TR-FRET was also used to measure the compound or compound-CYPA dependent disruption of the KRAS G12C-BRAF complex. This protocol was also used to measure disruption of KRAS G12D or KRAS G12V binding to BRAF by a compound of the invention, respectively. In assay buffer containing 25 mM HEPES PH=7.4 (4-(2-hydroxyethyl)-1-piperazineethanesulfonic acid, Thermo, 15630080), 0.002% Tween20, 0.1% BSA, 100 mM NaCl, 5 mM MgCl2, 10 μM GMPPNP (Guanosine 5′-[β,γ-imido]triphosphate trisodium salt hydrate, Sigma, G0635), […] 384-well assay plate at final concentrations of 50 nM, 6.25 nM and 1 nM, respectively. Compound was present in plate wells as a 16-point 3-fold dilution series starting at a final concentration of 10 μM and incubated for 3 hours. A mixture of MAb Anti-6His-XL665 (Cisbio, 61HISXLB) and Mab anti-GST-TB cryptate (Cisbio, 61GSTTLB) was then added at a final concentration of 6.67 nM and 0.21 nM, respectively, and the plate was incubated for an additional 1.5 hours. TR-FRET signal was read on a PHERstar FSX microplate reader (Ex320 nm, Em 665/615 nm). Compounds that facilitate disruption of the KRAS-BRAF complex were identified as those eliciting a decrease in the TR-FRET ratio relative to DMSO control wells.

SW620 (ATCC-CCL-227) = assay: Cell viability assay, G12V (SW620); assay type: cell-based, human; details: KRAS cell viability, SW620, 72 hrs, Cell Counting Kit-8
Experimental: (§2) The purpose of this cellular assay was to determine the effects of test compounds on the proliferation of human cancer cell lines NCI-H358 (ATCC-CRL5807) cells, AGS (ATCC-CRL-1739) cells, SW620 (ATCC-CCL-227) over a 3-day treatment period by quantifying the amount of NADPH present at endpoint using Cell Counting Kit-8.
(§3) Cells were seeded at 5,000 cells/well (NCI-H358), 2,000 cells/well (AGS) 2,000 cells/well (SW620) in 96-well assay plates (Corning-3699) and incubated overnight. On the day of the assay, diluted compounds were then added in a final concentration of 0.5% DMSO. After 72 hrs incubation, a tenth of the volume of cell counting kit 8 (Dnjindo-CK04) was added into each well. Read the signal (OD450 minus OD650) using EnVision after 2 hrs incubation. IC50 was determined by fitting a 4-parameter sigmoidal concentration response model.

[2] = test system: AGS (ATCC-CRL-1739) cells; assay: Cell viability assay, G12D (AGS); assay type: cell-based, human; details: KRAS cell viability, 72 hrs, Cell Counting Kit-8
Experimental: as §2, §3

[3] = target: KRAS G12V binding to BRAF (Homo sapiens (Human), UniProt P01116+P62937, G12V); assay: KRAS-BRAF with CYPA (500 nM) interaction assay (TR-FRET), G12V; assay type: biochemical
Sequence of KRAS G12V binding to BRAF (P01116-2 other isoform, or with tags, fused parts or gaps G12V): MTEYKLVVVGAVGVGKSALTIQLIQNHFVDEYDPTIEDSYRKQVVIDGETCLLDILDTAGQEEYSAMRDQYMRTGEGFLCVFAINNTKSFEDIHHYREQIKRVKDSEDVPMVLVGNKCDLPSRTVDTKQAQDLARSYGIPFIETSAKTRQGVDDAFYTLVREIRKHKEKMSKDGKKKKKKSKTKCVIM
Sequence of KRAS G12V binding to BRAF (P62937 whole entry): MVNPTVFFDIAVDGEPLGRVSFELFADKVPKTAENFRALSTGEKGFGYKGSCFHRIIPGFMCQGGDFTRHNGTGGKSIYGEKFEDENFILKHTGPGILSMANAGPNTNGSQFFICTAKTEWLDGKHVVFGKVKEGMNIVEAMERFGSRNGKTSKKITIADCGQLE
Experimental: In this example, TR-FRET was also used to measure the compound or compound-CYPA dependent disruption of the KRAS G12C-BRAF complex. This protocol was also used to measure disruption of KRAS G12D or KRAS G12V binding to BRAF by a compound of the invention, respectively. In assay buffer containing 25 mM HEPES PH=7.4 (4-(2-hydroxyethyl)-1-piperazineethanesulfonic acid, Thermo, 15630080), 0.002% Tween20, 0.1% BSA, 100 mM NaCl, 5 mM MgCl2, 10 μM GMPPNP (Guanosine 5′-[β,γ-imido]triphosphate trisodium salt hydrate, Sigma, G0635), […], GMPPNP loaded 6His-KRAS proteins, and […], 6.25 nM and 1 nM, respectively. Compound was present in plate wells as a 16-point 3-fold dilution series starting at a final concentration of 10 μM and incubated for 3 hours. A mixture of MAb Anti-6His-XL665 (Cisbio, 61HISXLB) and Mab anti-GST-TB cryptate (Cisbio, 61GSTTLB) was then added at a final concentration of 6.67 nM and 0.21 nM, respectively, and the plate was incubated for an additional 1.5 hours. TR-FRET signal was read on a PHERstar FSX microplate reader (Ex320 nm, Em 665/615 nm). Compounds that facilitate disruption of the KRAS-BRAF complex were identified as those eliciting a decrease in the TR-FRET ratio relative to DMSO control wells.

KRAS G12C-BRAF complex = KRAS G12C-BRAF complex (Homo sapiens (Human), UniProt P01116+P62937, G12C); assay: KRAS-BRAF with CYPA (500 nM) interaction assay (TR-FRET), G12C; assay type: biochemical
Sequence of KRAS G12C-BRAF complex (P01116-2 other isoform, or with tags, fused parts or gaps G12C): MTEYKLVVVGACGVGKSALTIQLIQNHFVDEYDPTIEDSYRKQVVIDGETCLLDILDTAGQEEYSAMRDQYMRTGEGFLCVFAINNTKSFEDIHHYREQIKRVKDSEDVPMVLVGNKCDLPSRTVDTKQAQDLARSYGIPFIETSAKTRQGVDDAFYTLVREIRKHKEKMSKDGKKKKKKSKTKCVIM
Sequence of KRAS G12C-BRAF complex (P62937 whole entry): as the sequence (P62937 whole entry) above
Experimental: as §1

[4] = test system: phosphorylation of ERK, KRAS G12C in NCJ-H358 cells; assay: pERK inhibition assay, KRAS G12C; assay type: cell-based, human; details: Homo sapiens, 4 hours
Experimental: (§4) This assay is to measure the ability of test compounds in inhibiting the phosphorylation of ERK, the downstream signaling of KRAS G12C in NCJ-H358 cells, KRAS G12D in AGS cells, and KRAS G12V in SW620. NCJ-H358 (ATCC-CRL5807) cells, AGS (ATCC-CRL-1739) cells, SW620 (ATCC-CCL-227) cells were all grown and maintained using RPMI-1640 medium (Thermo Fisher Scientific) with 10% fetal bovine serum and 1% penicillin/streptomycin. On the day prior to compound addition, cells were plated in tissue culture-treated 96 well plates (Corning-3699) at a density of 30,000 cell/well, 20,000 cell/well, 30,000 cell/well for NCJ-H358, AGS and SW620 respectively, and allowed for attachment overnight. Diluted compounds were then added in a final concentration of 0.5% DMSO. After 4 hours of incubation, the medium was removed, 100 μL of 4% formaldehyde was added, and the assay plates were incubated at room temperature for 20 minutes. The plates were then washed once with phosphate buffered saline (PBS), and permeabilized with 100 μL of chilled methanol for 10 minutes. Non-specific antibody binding to the plates was blocked using 50 μL 1×BSA blocking buffer (Thermo-37520, 10-fold dilution by Phosphate-Buffered Saline Tween (PBST) for at least 1 hour at room temperature.
(§5) The amount of phosphor-ERK was determined using an antibody specific for phosphorylated form of ERK. Primary antibody (pERK, CST-4370, Cell Signaling Technology) was diluted 1:300 in blocking buffer, with 50 μL aliquoted to each well, and incubated overnight at 4′° C. Cells was washed five times for 5 minutes with PBST. Secondary antibody ([…] anti-rabbit IgG, CST-7074, Cell Signaling Technology) was diluted 1:1000 in blocking buffer, and 50 μL was added to each well and incubated 1-2 hrs at room temperature. Cells was washed 5 times for 5 minutes with PBST, 100 μL TMB ELISA substrate (abcam-ab171523) were added and gently shake for 20 minutes. 50 μL stop solution (abcam-ab171529) were added, and then read the signal (OD450) by EnVision.
(§6) IC50 was determined by fitting a 4-parameter sigmoidal concentration response model.

[5] = test system: phosphorylation of ERK, KRAS G12V in SW620; assay: pERK inhibition assay, KRAS G12V; assay type: cell-based, human; details: Homo sapiens, SW-620, SW620, 4 hours
Experimental: as §4, §5, §6

Sequence of KRAS G12D binding to BRAF (P01116-2 other isoform, or with tags, fused parts or gaps G12D): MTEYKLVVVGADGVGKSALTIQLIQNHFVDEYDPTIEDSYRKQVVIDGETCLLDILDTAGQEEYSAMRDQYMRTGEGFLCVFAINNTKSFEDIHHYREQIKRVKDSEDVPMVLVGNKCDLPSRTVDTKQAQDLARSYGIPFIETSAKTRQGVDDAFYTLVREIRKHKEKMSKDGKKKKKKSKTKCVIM
Sequence of KRAS G12D binding to BRAF (P62937 whole entry): as the sequence (P62937 whole entry) above

SMILES	IC50 [1] [µM]	IC50 (SW620 (ATCC-CCL-227); Homo sapiens, SW-620) [µM]	IC50 ([2]; Homo sapiens) [µM]	IC50 [3] [µM]	IC50 (KRAS G12C-BRAF complex) [µM]	IC50 [4] [µM]	IC50 [5] [µM]	IC50 (SW620 (ATCC-CCL-227)) [µM]	IC50 [2] [µM]
CO[C@@H](C)c1ncc(N2CCN(C)CC2)cc1-c1c2c3cc(c(F)cc3n1CC(F)(F)F)-c1csc(n1)C[C@H](NC(=O)[C@H](C(C)C)N1CCC3(CN(C(=O)[C@H](F)Cl)C3)C1=O)C(=O)N1CCC[C@H](N1)C(=O)OCC(C)(C)C2 (atropisomer, axis not shown) [Example 25, (2S)-2-[2-[(2R)-2-chloro-2-fluoro-acetyl]-5-oxo-2,6-diazaspiro[3.4]octan-6-yl]-N-[(7S,13S)-24-fluoro-20-[2-[(1S)-1-methoxyethyl]-5-(4-methylpiperazin-1-yl)-3-pyridyl]-17,17-dimethyl-8,14-dioxo-21-(2,2,2-trifluoroethyl)-15-oxa-4-thia-9,21,27,28-tetrazapentacyclo[17.5.2.1^2,5.1^9,13.0^22,26]octacosa-1(25),2,5(28),19,22(26),23-hexaen-7-yl]-3-methyl-butanamide]	6.06	0.089	1.65	3.54	0.098				
CCn1c(-c2cc(N3CCN(C)CC3)cnc2[C@H](C)OC)c2c3cc(c(F)cc31)-c1csc(n1)C[C@H](NC(=O)[C@H](COC1CN(C(=O)[C@H](F)Cl)C1)C(C)C)C(=O)N1CCC[C@H](N1)C(=O)OCC(C)(C)C2 (atropisomer, axis not shown; (M)) [Example 41, (2S)-2-[[1-[(2R)-2-chloro-2-fluoro-acetyl]azetidin-3-yl]oxymethyl]-N-[(7S,13S)-21-ethyl-24-fluoro-(20M)-20-[2-[(1S)-1-methoxyethyl]-5-(4-methylpiperazin-1-yl)-3-pyridyl]-17,17-dimethyl-8,14-dioxo-15-oxa-4-thia-9,21,27,28-tetrazapentacyclo[17.5.2.1^2,5.1^9,13.0^22,26]octacosa-1(25),2,5(28),19,22(26),23-hexaen-7-yl]-3-methyl-butanamide]	> 10			1.17	0.088	0.107	0.199		
CCn1c(-c2cc(N3CCN(CC(F)(F)F)CC3)cnc2[C@H](C)OC)c2c3cc(c(F)cc31)-c1csc(n1)C[C@H](NC(=O)[C@H](C(C)C)N1CCCC3(CCN(C(=O)[C@H](F)Cl)CC3)C1=O)C(=O)N1CCC[C@H](N1)C(=O)OCC(C)(C)C2 (atropisomer, axis not shown; (M)) [Example 48, (2S)-2-[9-[(2R)-2-chloro-2-fluoro-acetyl]-1-oxo-2,9-diazaspiro[5.5]undecan-2-yl]-N-[(7S,13S)-21-ethyl-24-fluoro-(20M)-20-[2-[(1S)-1-methoxyethyl]-5-[4-(2,2,2-trifluoroethyl)piperazin-1-yl]-3-pyridyl]-17,17-dimethyl-8,14-dioxo-15-oxa-4-thia-9,21,27,28-tetrazapentacyclo[17.5.2.1^2,5.1^9,13.0^22,26]octacosa-1(25),2,5(28),19,22(26),23-hexaen-7-yl]-3-methyl-butanamide]	1.03			> 10	0.047	0.002	0.012		
CCn1c(-c2cc(N3CCOCC3)cnc2[C@H](C)OC)c2c3cc(c(F)cc31)-c1csc(n1)C[C@H](NC(=O)[C@H](C(C)C)N1CCC3(CCN(C(=O)[C@H](F)Cl)CC3)C1=O)C(=O)N1CCC[C@H](N1)C(=O)OCC(C)(C)C2 (atropisomer, axis not shown; (M)) [Example 50, (2S)-2-[8-[(2R)-2-chloro-2-fluoro-acetyl]-1-oxo-2,8-diazaspiro[4.5]decan-2-yl]-N-[(7S,13S)-21-ethyl-24-fluoro-(20M)-20-[2-[(1S)-1-methoxyethyl]-5-morpholino-3-pyridyl]-17,17-dimethyl-8,14-dioxo-15-oxa-4-thia-9,21,27,28-tetrazapentacyclo[17.5.2.1^2,5.1^9,13.0^22,26]octacosa-1(25),2,5(28),19,22(26),23-hexaen-7-yl]-3-methyl-butanamide]	> 10			> 10	0.124	0.006	0.006		
CCn1c(-c2cc(N3CCN(C)CC3)cnc2[C@H](C)OC)c2c3cc(c(F)cc31)-c1csc(n1)C[C@H](NC(=O)[C@H](C(C)C)N1CCC[C@]3(CCN(C(=O)[C@@H](F)Cl)C3)C1=O)C(=O)N1CCC[C@H](N1)C(=O)OCC(C)(C)C2 [Example 23, (2S)-2-[(5S)-2-[(2S)-2-chloro-2-fluoro-acetyl]-6-oxo-2,7-diazaspiro[4.5]decan-7-yl]-N-[(7S,13S)-21-ethyl-24-fluoro-(20M)-20-[2-[(1S)-1-methoxyethyl]-5-(4-methylpiperazin-1-yl)-3-pyridyl]-17,17-dimethyl-8,14-dioxo-15-oxa-4-thia-9,21,27,28-tetrazapentacyclo[17.5.2.1^2,5.1^9,13.0^22,26]octacosa-1(25),2,5(28),19,22(26),23-hexaen-7-yl]-3-methyl-butanamide]	2.08			5.39	0.064			0.09	0.322
